Measurements from publication PMC6781499 (Pharmaceutics, 2019).
Read-outs that look alike come from different tables or passages of the source.

Experiments:
[1] = Pharmacokinetics of Ewha-18278 after IV and oral administration to rats (non-compartmental analysis, HPLC/UV plasma assay); assay type: in vivo, Sprague-Dawley rats; conditions: for F (absolute BA): PO 20 mg/kg vs IV 2 mg/kg
Protocol: The plasma sample (50 µL) with IS was deproteinized with twice the volume of acetonitrile (ACN). All HPLC analyses were performed on an Agilent 1100 series system (Palo Alto, CA, USA). Capcell-pak C18 MG120 column (3.0 mm × 250 mm, 5 µm, Shiseido, Tokyo, Japan) was the analytical column used. All the prepared samples were eluted with acetonitrile and water (65:35, v/v) containing 0.1% trifluoroacetic acid (TFA) at a flow rate of 0.5 mL/min. The sample reservoir and column oven were maintained at 4 °C and 40 °C, respectively. UV detection was performed at 284 nm and the injection volume was 30 µL.
All the animal procedures were approved by the Institutional Animal Care and Use Committee of Ewha Womans University (IACUC) (No. 2010-2-5, approved on 19 February 2010), Seoul, Korea. Seven-week-old male Sprague-Dawley rats (200–240 g) were used for the PK experiments.
The DMSO-based formulations were comprised of 10% DMSO and 90% saline-based solution (25% Cremophor® EL, 5% polyethylene glycol 400, 0.5% Tween® and 69.5% saline, v/v/v/v). The diazepam injection-based formulation applicable to humans was composed of 40% propylene glycol, 10% dehydrated ethanol, and 50% water (v/v/v). […] These concentrations were utilized to examine the effect of concentration on the PK parameters of the compound.
The rats were divided into five groups on the day of the drug administration. Two groups (n = 6) were administered the DMSO-based formulation: IV injection of 2 mg/kg and oral administration of 20 mg/kg. Three groups (n = 5–6) were treated with the diazepam injection-based formulation: IV injection of 2 mg/kg and oral administration of 20 mg/kg in two different concentrations (1 mg/mL and 2 mg/mL). The common carotid artery was catheterized for blood sampling. Blood sampling (0.2 mL) was conducted at 0, 0.033, 0.083, 0.25, 0.5, 1, 2, 4, 6, 10, and 24 h for the IV group and 0, 0.083, 0.25, 0.5, 1, 2, 4, 6, 10, 24, and 34 h for PO groups. Plasma samples mixed with IS (Ewha-18212) were analyzed by the HPLC system.

[2] = Stability of Ewha-18278 in rat plasma (short-term, long-term, freeze-thaw, post-preparative); assay type: in vitro ADME; conditions: n = 3; for Stability 37 °C, 6 h / Stability Freeze-thaw / Stability RT, 6 h / Stability −20 °C, 4-W / Stability −70 °C, 4-W: rat plasma
[3] = Solubility (aqueous / in co-solvent formulation); assay type: physicochemical
[4] = system: NOX1; design: method as in PMID 26975635; conditions: in vitro; cited from earlier work
[5] = system: NOX4; design: method as in PMID 26975635; conditions: in vitro; cited from earlier work
[6] = system: NOX2; design: method as in PMID 26975635; conditions: in vitro; cited from earlier work
[7] = system: ovariectomized (OVX) mice; design: method as in PMID 26975635; conditions: orally 10–20 mg/kg daily for 4 weeks; cited from earlier work
[8] = system: bone marrow-derived macrophages (BMMs); design: method as in PMID 26975635; conditions: in vitro; cited from earlier work
[9] = IV 2 mg/kg, diazepam injection-based formulation (1 mg/mL)
[10] = male, Sprague-Dawley, rat, plasma, iv, 2 mg/kg, IV 2 mg/kg, DMSO formulation (1 mg/mL)
[11] = male, Sprague-Dawley, rat, plasma, po, 20 mg/kg, PO 20 mg/kg, DMSO formulation (2 mg/mL)
[12] = male, Sprague-Dawley, rat, plasma, po, 20 mg/kg, PO 20 mg/kg, diazepam injection-based formulation (2 mg/mL)

## CCCc1c(-c2ccccc2)nn(-c2ccccn2)c1O [Ewha-18278]
[1]; IV 2 mg/kg, DMSO formulation (1 mg/mL)
  Clt: 0.216 ± 0.084 L/h
[1]; [9]
  Clt: 0.250 ± 0.072 L/h
  Vd: 1.52 ± 1.17 L
[1]; DMSO formulation (2 mg/mL)
  F (absolute BA): 62.4%
[1]; diazepam injection-based formulation (1 mg/mL)
  F (absolute BA): 67.2%
[1]; diazepam injection-based formulation (2 mg/mL)
  F (absolute BA): 43.0%
[1]; PO 20 mg/kg, DMSO formulation (2 mg/mL)
  Clt/F: 0.327 ± 0.164 L/h
[1]; PO 20 mg/kg, DMSO formulation (2 mg/mL), 20 mg/kg
  AUCinf: 19.4 ± 8.69 µg·h/mL
[1]; PO 20 mg/kg, DMSO-based and diazepam injection-based formulations
  BA (absolute), all groups / both formulations: more than 40%
[1]; PO 20 mg/kg, diazepam injection-based formulation (1 mg/mL)
  Clt/F: 0.531 ± 0.370 L/h
[1]; PO 20 mg/kg, diazepam injection-based formulation (2 mg/mL)
  Clt/F: 0.726 ± 0.553 L/h
[1]; PO 20 mg/kg, diazepam injection-based formulation, 2 mg/mL vs 1 mg/mL
  Decrease of PK parameters (AUCinf, t1/2, absolute BA) in the higher concentration group: ~35%
[1]; PO 20 mg/kg, diazepam injection-based formulation, high concentration (2 mg/mL)
  Time of second peak in plasma concentration-time profile: 10 h
[1]; PO 20 mg/kg, diazepam injection-based formulation, low concentration (1 mg/mL)
  Time of second peak in plasma concentration-time profile: 6 h
[1]; PO, diazepam injection-based formulation, 1 mg/mL compared to 2 mg/mL
  Increase of AUCinf at low vs high concentration: 1.6 fold
[1]; male, Sprague-Dawley, rat, plasma, IV 2 mg/kg, DMSO formulation (1 mg/mL)
  C0: 7240 ± 2450 ng/mL
[1]; male, Sprague-Dawley, rat, plasma, IV 2 mg/kg, DMSO formulation (1 mg/mL), read-out: Vd
  Vd: 0.785 ± 0.154 L
[1]; [10]
  AUC(0-inf): 2860 ± 1090 ng·h/mL
  half-life: 184 ± 121 min
[1]; [11]
  AUC(0-inf): 17900 ng·h/mL
  Cmax: 4680 ± 2110 ng/mL
  Tmax: 14.9 ± 9.96 min
  Vd/F: 6.06 ± 2.32 L
  half-life: 852 ± 286 min
[1]; male, Sprague-Dawley, rat, plasma, po, 20 mg/kg, PO 20 mg/kg, diazepam injection-based formulation (1 mg/mL)
  Vd/F: 9.72 ± 5.17 L
[1]; [12]
  AUC(0-inf): 9250 ± 4420 ng·h/mL
  Cmax: 6240 ± 2020 ng/mL
  Tmax: 4.98 min
  Vd/F: 7.9 ± 3.01 L
  half-life: 538 ± 175 min
[2]; high QC concentration
  Stability Post-prep.: 103%
  Stability 37 °C, 6 h: 87.5%
  Stability Freeze-thaw: 86.0%
  Stability RT, 6 h: 93.4%
  Stability −20 °C, 4-W: 90.4%
  Stability −70 °C, 4-W: 97.5%
[2]; low QC concentration
  Stability Post-prep.: 103%
  Stability 37 °C, 6 h: 89.0%
  Stability Freeze-thaw: 90.4%
  Stability −20 °C, 4-W: 99.4%
  Stability −70 °C, 4-W: 100%
[2]; low QC concentration, vs freshly prepared QC samples
  Stability RT, 6 h: 94.5%
[3]; mixture of propylene glycol, dehydrated ethanol, and water
  Dissolution in co-solvents: completely dissolved
[3]; salt formation
  Solubility of the hydrochloride salt relative to free form #2: strongly enhanced the solubility
[3]; water
  Aqueous solubility: highly insoluble in water
[4]
  Effect on NOX1 activity: directly interfering with the activity
[5]
  Effect on NOX4 activity: directly interfering with the activity
[6]
  Effect on NOX2 activity: directly interfering with the activity
[7]
  Bone strength / cortical bone thickness: induced bone strength by increasing cortical bone thickness
[8]
  Effect on responses of BMMs to RANKL: inhibited
